Results: PubChem BioAssay (NCI)
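In this assay, cells in 96-well plates receive the compound at five concentrations for 48 hours. Endpoints are linearly interpolated between the surrounding concentrations. GI50 marks 50% less growth. TGI: concentration producing complete growth inhibition.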

Legend:
Test in all cases: inhibition of tumour cell growth, NCI panel, 48 h; in the data active means GI50 below about 0.43 µM; inactive means the rest
[1] = system: 786-0 renal
[2] = system: A498 renal
[3] = system: A549 NSCLC
[4] = system: ACHN renal
[5] = system: BT-549 breast
[6] = system: CAKI-1 renal
[7] = system: CCRF-CEM leukemia
[8] = system: COLO 205 colon
[9] = system: DU-145 prostate
[10] = system: EKVX NSCLC
[11] = system: HCC-2998 colon
[12] = system: HCT-116 colon
[13] = system: HCT-15 colon
[14] = system: HOP-62 NSCLC
[15] = system: HOP-92 NSCLC
[16] = system: HS 578T breast
[17] = system: HT29 colon
[18] = system: IGROV1 ovarian
[19] = system: K-562 leukemia
[20] = system: KM12 colon
[21] = system: LOX IMVI melanoma
[22] = system: M14 melanoma
[23] = system: MALME-3M melanoma
[24] = system: MCF7 breast
[25] = system: MDA-MB-231 breast
[26] = system: MDA-MB-435
[27] = system: MOLT-4 leukemia
[28] = system: NCI-H226 lung
[29] = system: NCI-H23 lung
[30] = system: NCI-H460 lung
[31] = system: NCI-H522 lung
[32] = system: OVCAR-3 ovarian
[33] = system: OVCAR-4 ovarian
[34] = system: OVCAR-5 ovarian
[35] = system: OVCAR-8 ovarian
[36] = system: PC-3 prostate
[37] = system: RPMI-8226 leukemia
[38] = system: RXF 393 renal
[39] = system: SF-268 CNS
[40] = system: SF-295 CNS
[41] = system: SF-539 CNS
[42] = system: SK-MEL-2 melanoma
[43] = system: SK-MEL-28 melanoma
[44] = system: SK-MEL-5 melanoma
[45] = system: SK-OV-3 ovarian
[46] = system: SN12C renal
[47] = system: SNB-19 CNS
[48] = system: SNB-75 CNS
[49] = system: SW-620 colon
[50] = system: T-47D breast
[51] = system: TK-10 renal
[52] = system: U251 CNS
[53] = system: UACC-257 melanoma
[54] = system: UACC-62 melanoma
[55] = system: UO-31 renal
[56] = system: NCI/ADR-RES ovarian

O=C(NN1C(=O)CSC12CCCCC2)c1[nH]c2ccc(F)cc2c1-c1ccccc1
92.5 µM: TGI [11]
40.9 µM: TGI [15]
37.5 µM: TGI [46]
inactive: GI50 [1] 26 µM | GI50 [2] 27.1 µM | GI50 [3] 16.7 µM | GI50 [4] 20 µM | GI50 [5] 33.8 µM | GI50 [6] 31.9 µM | GI50 [7] 29.7 µM | GI50 [8] 36.8 µM | GI50 [9] 22.6 µM | GI50 [10] 83 µM | GI50 [11] 34.8 µM | GI50 [12] 16.7 µM | GI50 [13] 32.3 µM | GI50 [14] 19.2 µM | GI50 [15] 17.8 µM | GI50 [16] 21.8 µM | GI50 [17] 17.8 µM | GI50 [18] 14.4 µM | GI50 [19] 21.3 µM | GI50 [20] 17.1 µM | GI50 [21] 24.1 µM | GI50 [22] 38.2 µM | GI50 [23] 20.2 µM | GI50 [24] 19.4 µM | GI50 [25] 18.8 µM | GI50 [26] 21.8 µM | GI50 [27] 13.9 µM | GI50 [28] 28.1 µM | GI50 [29] 18.4 µM | GI50 [30] 26.6 µM | GI50 [31] 19.1 µM | GI50 [32] 18.8 µM | GI50 [33] 22.9 µM | GI50 [34] 37.6 µM | GI50 [35] 18 µM | GI50 [36] 18.8 µM | GI50 [37] 15.7 µM | GI50 [38] 14.6 µM | GI50 [39] 22.7 µM | GI50 [40] 22.2 µM | GI50 [41] 21.8 µM | GI50 [42] 34.6 µM | GI50 [43] 28.2 µM | GI50 [44] 41.4 µM | GI50 [45] 35.8 µM | GI50 [46] 18.2 µM | GI50 [47] 19.8 µM | GI50 [48] 18.5 µM | GI50 [49] 26.6 µM | GI50 [50] 35.6 µM | GI50 [51] 19.4 µM | GI50 [52] 18.2 µM | GI50 [53] 23.3 µM | GI50 [54] 15.2 µM | GI50 [55] 27.8 µM
77.7 µM: TGI [30]
45.8 µM: TGI [25]
76.5 µM: TGI [2]
37.2 µM: TGI [41]
87.5 µM: TGI [49]
96.7 µM: TGI [7]
42.9 µM: TGI [4]
43.5 µM: TGI [23]
54.7 µM: TGI [54]
41.7 µM: TGI [27]
45.2 µM: TGI [9]
59.6 µM: TGI [39]
35.7 µM: TGI [51]
77 µM: TGI [28]
41.2 µM: TGI [14]
> 100 µM: TGI [5] | TGI [6] | TGI [8] | TGI [10] | TGI [13] | TGI [22] | TGI [34] | TGI [42] | TGI [44] | TGI [45] | TGI [50]
30.6 µM: TGI [3]
36.2 µM: TGI [17] | TGI [48]
80.9 µM: TGI [55]
35.9 µM: TGI [36]
31.9 µM: TGI [35]
49.8 µM: TGI [1]
52.9 µM: TGI [26]
50.9 µM: TGI [29]
37.3 µM: TGI [24]
44.2 µM: TGI [47]
39.2 µM: TGI [52]
58.7 µM: TGI [31]
93.2 µM: TGI [43]
32.6 µM: TGI [20]
32.9 µM: TGI [18] | TGI [32]
70.9 µM: TGI [33]
56.9 µM: TGI [53]
52.7 µM: TGI [19]
37 µM: TGI [37]
61.9 µM: TGI [21]
40 µM: TGI [40]
82.8 µM: TGI [16]
31.5 µM: TGI [12]
29.7 µM: TGI [38]

Cc1ccccc1N=Nc1ccc(N=Nc2c(O)ccc3ccccc23)c(C)c1
> 100 µM: TGI [1] | TGI [2] | TGI [3] | TGI [4] | TGI [5] | TGI [6] | TGI [8] | TGI [9] | TGI [10] | TGI [12] | TGI [13] | TGI [14] | TGI [15] | TGI [16] | TGI [17] | TGI [18] | TGI [19] | TGI [20] | TGI [21] | TGI [22] | TGI [23] | TGI [25] | TGI [26] | TGI [27] | TGI [28] | TGI [29] | TGI [31] | TGI [56] | TGI [32] | TGI [33] | TGI [34] | TGI [35] | TGI [36] | TGI [37] | TGI [38] | TGI [39] | TGI [40] | TGI [42] | TGI [43] | TGI [44] | TGI [45] | TGI [46] | TGI [47] | TGI [48] | TGI [49] | TGI [50] | TGI [51] | TGI [52] | TGI [53] | TGI [54] | TGI [55]
